Measurements from ChEMBL document CHEMBL1201862, “PubChem BioAssay data set” (2004).
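Compound exposure: 48 hours, 5 concentrations, 96-well plates. Abbreviation: GI50, concentration required for 50% inhibition of growth.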 Calls of active or inactive are those of the source. No stated cut-off is given here; in the data, active = GI50 up to about 1.1 µM and inactive = higher.

Assays:
Assay in all cases: NCI-60 cell line screen, 48 h
TK-10 = tested on: TK-10
ACHN = tested on: ACHN
NCI/ADR-RES = tested on: NCI/ADR-RES
BT-549 = tested on: BT-549
RXF 393 = tested on: RXF 393
NCI-H460 = tested on: NCI-H460
CCRF-CEM = tested on: CCRF-CEM
MDA-MB-435 = tested on: MDA-MB-435
OVCAR-4 = tested on: OVCAR-4
SNB-75 = tested on: SNB-75
EKVX = tested on: EKVX
A549 = tested on: A549
Malme-3M = tested on: Malme-3M
OVCAR-5 = tested on: OVCAR-5
Hs-578T = tested on: Hs-578T
KM12 = tested on: KM12
786-0 = tested on: 786-0
HCT-116 = tested on: HCT-116
SK-MEL-5 = tested on: SK-MEL-5
UACC-62 = tested on: UACC-62
HOP-62 = tested on: HOP-62
M14 = tested on: M14
COLO 205 = tested on: COLO 205
U-251 = tested on: U-251
OVCAR-8 = tested on: OVCAR-8
RPMI-8226 = tested on: RPMI-8226
SK-OV-3 = tested on: SK-OV-3
UACC-257 = tested on: UACC-257
MDA-MB-231 = tested on: MDA-MB-231
SF-295 = tested on: SF-295
HL-60 = tested on: HL-60
SR = tested on: SR
SK-MEL-2 = tested on: SK-MEL-2
K562 = tested on: K562
HCC 2998 = tested on: HCC 2998
SF-539 = tested on: SF-539
HCT-15 = tested on: HCT-15
NCI-H226 = tested on: NCI-H226
SK-MEL-28 = tested on: SK-MEL-28
DU-145 = tested on: DU-145
PC-3 = tested on: PC-3
HT-29 = tested on: HT-29
HOP-92 = tested on: HOP-92
MOLT-4 = tested on: MOLT-4
MCF7 = tested on: MCF7
SW-620 = tested on: SW-620
SN12C = tested on: SN12C
NCI-H522 = tested on: NCI-H522
LOX IMVI = tested on: LOX IMVI
T47D = tested on: T47D
SNB-19 = tested on: SNB-19
MDA-N = tested on: MDA-N
SF-268 = tested on: SF-268
CAKI-1 = tested on: CAKI-1
IGROV-1 = tested on: IGROV-1
UO-31 = tested on: UO-31
NCI-H23 = tested on: NCI-H23
A498 = tested on: A498

Measured: GI50

Cc1nc(-c2cc3c(ccc4ccccc43)oc2=O)cs1
> 100 µM: HCT-15
inactive: TK-10 46.7 µM | ACHN 63.7 µM | NCI/ADR-RES 48.3 µM | BT-549 23.7 µM | RXF 393 35.8 µM | NCI-H460 91.8 µM | CCRF-CEM > 100 µM | MDA-MB-435 > 100 µM | OVCAR-4 37.7 µM | SNB-75 36.6 µM | EKVX 35.8 µM | A549 > 100 µM | Malme-3M 76.2 µM | OVCAR-5 > 100 µM | Hs-578T 30.3 µM | KM12 > 100 µM | 786-0 39.1 µM | HCT-116 > 100 µM | SK-MEL-5 > 100 µM | UACC-62 26 µM | HOP-62 35.7 µM | M14 83.9 µM | COLO 205 > 100 µM | U-251 57.9 µM | OVCAR-8 35.5 µM | RPMI-8226 > 100 µM | SK-OV-3 37.8 µM | UACC-257 > 100 µM | MDA-MB-231 70.5 µM | SF-295 41.8 µM | HL-60 > 100 µM | SR > 100 µM | SK-MEL-2 > 100 µM | K562 > 100 µM | HCC 2998 > 100 µM | SF-539 43.3 µM | NCI-H226 66.4 µM | SK-MEL-28 > 100 µM | DU-145 > 100 µM | PC-3 70.8 µM | HT-29 > 100 µM | HOP-92 30.2 µM | MOLT-4 > 100 µM | MCF7 > 100 µM | SW-620 > 100 µM | SN12C > 100 µM | NCI-H522 35.2 µM | LOX IMVI > 100 µM | T47D > 100 µM | SNB-19 33.2 µM | MDA-N > 100 µM | SF-268 35.6 µM | CAKI-1 > 100 µM | IGROV-1 21.5 µM | UO-31 46.3 µM

Cc1[nH]n(-c2nc(O)c(-c3ccccc3)c(=O)[nH]2)c(=O)c1CCO
inactive: TK-10 > 100 µM | ACHN > 100 µM | NCI/ADR-RES > 100 µM | BT-549 > 100 µM | RXF 393 > 100 µM | NCI-H23 > 100 µM | NCI-H460 > 100 µM | CCRF-CEM > 100 µM | MDA-MB-435 > 100 µM | OVCAR-4 > 100 µM | SNB-75 54.5 µM | EKVX > 100 µM | A549 > 100 µM | Malme-3M > 100 µM | OVCAR-5 > 100 µM | Hs-578T > 100 µM | KM12 > 100 µM | 786-0 > 100 µM | HCT-116 > 100 µM | SK-MEL-5 > 100 µM | UACC-62 > 100 µM | M14 > 100 µM | COLO 205 > 100 µM | U-251 > 100 µM | OVCAR-8 > 100 µM | RPMI-8226 > 100 µM | SK-OV-3 > 100 µM | UACC-257 > 100 µM | A498 > 100 µM | MDA-MB-231 > 100 µM | SF-295 > 100 µM | HL-60 > 100 µM | SR > 100 µM | SK-MEL-2 > 100 µM | K562 > 100 µM | SF-539 > 100 µM | NCI-H226 > 100 µM | SK-MEL-28 > 100 µM | DU-145 > 100 µM | PC-3 > 100 µM | HT-29 > 100 µM | HOP-92 > 100 µM | MOLT-4 > 100 µM | MCF7 > 100 µM | SW-620 > 100 µM | SN12C > 100 µM | NCI-H522 > 100 µM | T47D > 100 µM | SNB-19 > 100 µM | MDA-N > 100 µM | SF-268 > 100 µM | CAKI-1 > 100 µM | IGROV-1 > 100 µM | UO-31 > 100 µM
> 100 µM: HCT-15
